pEC50, pIC50: −log10 of the molar value. Read-outs that look alike come from different tables or passages of the source. Some results are limits rather than exact numbers.

One assay has as its target P. vivax DHODH (Plasmodium vivax, UniProt A5K1N1). In words: DHODH inhibition, steady-state DCIP assay (PvDHODH). The assay is classed as biochemical. The text has this: (§1) DOI: 10.1074/jbc.M206854200).
(§2) Proteins were expressed and purified on a Pharmacia FPLC using HisTrap HP column chromatography followed by gel filtration chromatography on a Pharmacia HiLoad 16/600 Superdex 200 column, and protein concentration determined based on OD280 using the previously described extinction coefficients (Kokkonda et al., 2020, J Med Chem, 63 (9), 4929-4956. DOI: 10.1021/acs.jmedchem.0c00311). Purified proteins were >95% pure based on SDS-PAGE analysis.
(§3) DHODH activity was monitored in a steady-state assay using the 2,6-dichloroindophenol (DCIP) method at 25°C in assay buffer (100 mM HEPES, pH 8.0, 150 mM NaCl, 1% glycerol, 0.1% Triton X-100 reduced) plus substrates 20 µM CoQD, 200 µM DHO, 120 µM DCIP, and 5 nM enzyme as previously described (Malmquist et al, 2008, Biochemistry, 47 (8), 2466-2475. DOI: 10.1021/bi702218c).
(§4) Compound stocks were prepared at 10-100 mM in DMSO, and diluted working stocks in DMSO were generated as appropriate. Compounds were plated from DMSO stocks in 96 well plate format using a Tecan D300e digital dispenser to generate a 3-fold dilution series over a concentration range of 0.0003 -100 µM (or 30 µM), yielding a final DMSO concentration of 1% in the assay. The top concentration used in the dose response was determined by the initial DMSO stock concentrations:100 µM for 100 mM stocks, and 30 µM for 10 mM stocks. Triplicate rate data were collected at each inhibitor concentration. Inhibitory IC50 values were determined by fitting the data to log (inhibitor) vs response equation Y = bottom + (top - bottom)/(1 + 10A ((X - Log IC50))) in GraphPad Prism. DSM265 ^2 was plated as an assay control in all studies.

The test system of another assay is P. falciparum 3D7. In words: Asexual blood-stage growth inhibition assay, SYBR green method. The assay is classed as cell-based. To be noted: ring-stage 3D7 parasites. On the procedure: Asexual blood-stage EC50 assays. […] Compound stocks prepared in DMSO were plated using a Tecan D300e automated low volume liquid handler. Ring-stage 3D7 or Dd2 parasites (60 µL cells) (2% hematocrit, 0.5% parasitemia, final DMSO concentration 0.5%) were added to plates, incubated with compounds over a range of concentrations in technical triplicate for 72 h at 37 °C, 5% CO2, and then frozen (-80°C) overnight before analysis. […] Data were analyzed by non-linear regression using GraphPad Prism to determine the EC50 by fitting to the built-in equation (log(inhibitor) vs response-variable slope with four parameters).

Another assay deals with T1, P. falciparum DHODH (Plasmodium falciparum, UniProt Q08210).
T1 construct: His6 (N); made in house; host or cells: E. coli BL21-DE3 (phage-resistant)
Nature of the assay: DHODH inhibition, steady-state DCIP assay (PfDHODH). The assay is classed as biochemical. As to conditions: recombinant PfDHODH, DCIP method, 25°C, 5 nM enzyme. On the procedure: as §4, with “Prism.” for “Prism. DSM265 ^2 was plated as an assay control in all studies.”

Another assay addresses T2, Human DHODH (Homo sapiens, UniProt Q02127).
T2 construct: C-terminal His6-tagged HsDHODH residues 29-395 in pET-22b (start ^29MATGDE); His6 (C); made in house; host or cells: E. coli BL21-DE3 (phage-resistant)
In words: DHODH inhibition, steady-state DCIP assay (human DHODH). The assay is classed as biochemical. To be noted: recombinant HsDHODH, DCIP method, 25°C, 5 nM enzyme; top concentration 100 µM or 30 µM.
Source text: as §1, §2, §3, §4

[1] abbreviates: recombinant PvDHODH, DCIP method, 25°C, 5 nM enzyme; read-out: P. vivax DHODH (IC50).
Where [2] appears, read: Plasmodium falciparum, 3D7, 72 h.
Where [3] appears, read: read-out: P. vivax DHODH (IC50); recombinant PvDHODH, DCIP method, 25°C, 5 nM enzyme.

T1 sequence (Q08210 158-569): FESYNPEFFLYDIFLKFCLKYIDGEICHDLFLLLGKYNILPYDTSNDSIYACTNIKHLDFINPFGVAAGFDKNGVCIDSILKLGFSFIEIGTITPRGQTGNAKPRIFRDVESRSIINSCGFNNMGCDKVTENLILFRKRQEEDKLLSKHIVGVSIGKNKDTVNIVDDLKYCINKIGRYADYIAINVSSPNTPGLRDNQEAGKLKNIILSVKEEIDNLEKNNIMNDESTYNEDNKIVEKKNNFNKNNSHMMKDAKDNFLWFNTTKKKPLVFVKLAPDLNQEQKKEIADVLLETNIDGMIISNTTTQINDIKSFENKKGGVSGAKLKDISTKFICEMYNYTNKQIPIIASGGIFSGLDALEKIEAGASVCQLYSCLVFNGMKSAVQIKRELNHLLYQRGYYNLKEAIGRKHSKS
T2 sequence (Q02127 29-395): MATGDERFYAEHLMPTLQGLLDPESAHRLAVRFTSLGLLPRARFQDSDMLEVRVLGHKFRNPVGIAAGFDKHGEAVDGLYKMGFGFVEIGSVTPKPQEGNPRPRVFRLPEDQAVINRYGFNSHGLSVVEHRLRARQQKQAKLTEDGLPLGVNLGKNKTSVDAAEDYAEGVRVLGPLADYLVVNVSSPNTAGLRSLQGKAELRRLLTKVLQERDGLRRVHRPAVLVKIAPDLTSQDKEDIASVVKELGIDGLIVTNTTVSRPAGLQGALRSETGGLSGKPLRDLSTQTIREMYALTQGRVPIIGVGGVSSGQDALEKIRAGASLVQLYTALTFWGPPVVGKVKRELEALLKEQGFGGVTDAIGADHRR
P. vivax DHODH, sequence (A5K1N1 entry or part of it): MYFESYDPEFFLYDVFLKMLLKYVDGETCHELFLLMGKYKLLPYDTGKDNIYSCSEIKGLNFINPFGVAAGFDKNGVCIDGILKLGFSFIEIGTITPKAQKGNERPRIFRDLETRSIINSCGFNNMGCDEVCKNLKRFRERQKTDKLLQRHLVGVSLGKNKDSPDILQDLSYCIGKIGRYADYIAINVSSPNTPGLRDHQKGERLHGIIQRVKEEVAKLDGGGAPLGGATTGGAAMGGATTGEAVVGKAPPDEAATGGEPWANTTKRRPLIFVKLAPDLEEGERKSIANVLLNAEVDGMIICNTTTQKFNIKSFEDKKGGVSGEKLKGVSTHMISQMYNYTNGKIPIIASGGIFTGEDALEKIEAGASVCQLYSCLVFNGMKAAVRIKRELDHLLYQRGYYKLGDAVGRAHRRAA

On to `CC(C)[C@@](O)(c1cnc(C(F)(F)F)c(Cl)c1)c1c2ccn(C3CC3)c(=O)c2nn1C` (single isomer, unassigned) [1-1], for which the negative-log IC50 (pIC50) on P. vivax DHODH (setting [1]) was 7.40; at P. falciparum DHODH, 7.34; on Human DHODH, less than 4.52. In the assay on P. falciparum 3D7 (setting [2]), this molecule had a pEC50 of 7.80.
For `Cn1nc2c(=O)n(C3CC3)ccc2c1[C@](O)(c1ccc(C(F)(F)F)c(C#N)c1)C1CC1` (single isomer, unassigned) [1-3], in that order: 7.77, 7.77, less than 4.52 and 8.89.
For `CC[C@@](O)(c1ccc(C(F)(F)F)c(C#N)c1)c1c2ccn(C3CC3)c(=O)c2nn1C` (single isomer, unassigned) [1-5] the same measures were 7.68, 7.77, 6.04 and 9.12.
For `Cn1nc2c(=O)n(C3CC3)ccc2c1[C@](C)(O)c1ccc(F)c(Cl)c1` (single isomer, unassigned) [1-9], in that order: 8.16, 7.80, 4.85 and 9.04.
Take `CC[C@@](O)(c1ccc(F)c(Cl)c1)c1c2ccn(C3CC3)c(=O)c2nn1C` (single isomer, unassigned) [1-13]: the pIC50 was 7.96 at P. vivax DHODH (setting [1]), 8.15 on P. falciparum DHODH and 6.17 on Human DHODH. Besides, the negative-log EC50 (pEC50) in the assay with P. falciparum 3D7 (setting [2]) was 9.31.
For `CC[C@@](O)(c1cnc(C(F)(F)F)c(Cl)c1)c1c2ccn(C3CC3)c(=O)c2nn1C` (single isomer, unassigned) [1-14], the pIC50 on P. vivax DHODH (setting [1]) was 7.74; at P. falciparum DHODH it was 7.85; on Human DHODH, 5.38. For the same molecule, in the assay with P. falciparum 3D7 (setting [2]), the pEC50 is 9.19.
For `Cn1nc2c(=O)n(C3CC3)ccc2c1[C@](O)(c1cnc(C(F)(F)F)c(Cl)c1)C1CC1` (single isomer, unassigned) [1-16] the same measures were 7.64, 7.80, less than 4.52 and 8.49.
For `Cn1nc2c(=O)n(C3CC3)ccc2c1[C@](O)(c1ccc(F)c(Cl)c1)C1CC1` (single isomer, unassigned) [1-18] the same measures were 7.96, 7.92, 4.66 and 8.05.
With `CC[C@@](O)(c1cc(F)c(Cl)c(F)c1)c1c2ccn(C3CC3)c(=O)c2nn1C` (single isomer, unassigned) [1-20], the pIC50 at P. vivax DHODH (setting [1]) is 7.72; on Human DHODH, 5.85. Also, the pEC50 in the assay with P. falciparum 3D7 (setting [2]) was 9.30.
For `CC[C@@](O)(c1ccc(C(F)(F)F)nc1)c1c2ccn(C3CC3)c(=O)c2nn1C` (single isomer, unassigned) [1-22] the same measures were 7.32, 5.28 and 8.57.
`CCn1cc(F)c2c([C@@](O)(CC)c3ccc(C(F)(F)F)nc3)n(C)nc2c1=O` (single isomer, unassigned) [1-24]: the values for the negative-log IC50 (pIC50) on P. vivax DHODH (setting [1]), on P. falciparum DHODH and on Human DHODH were 7.48, 7.62 and 5.21, respectively. For the same molecule, in the assay on P. falciparum 3D7 (setting [2]), the negative-log EC50 (pEC50) is 8.92.
For `Cn1nc2c(=O)n(C3CC3)ccc2c1[C@](O)(c1ccc(C(F)(F)F)nc1)C1CC1` (single isomer, unassigned) [1-26], in that order: 7.32, 7.34, less than 4.52 and 8.17.
As to `CCn1cc(C2CC2)c2c([C@H](O)c3cnc(C(F)(F)F)c(Cl)c3)n(C)nc2c1=O` (single isomer, unassigned) [1-28], the negative logarithm of the IC50 (pIC50) on P. vivax DHODH (setting [1]) was 7.96; at P. falciparum DHODH, 7.59; at Human DHODH, less than 4.00. Also, in the assay on P. falciparum 3D7 (setting [2]), the pEC50 is 8.34.
For `CCn1cc(C)c2c([C@H](O)c3ccc(Cl)c(F)c3)n(C)nc2c1=O` (single isomer, unassigned) [1-30] the same measures were 8.10, 7.74, 4.47 and 8.15.
With `CCn1ccc2c([C@](O)(c3cnc(C(F)(F)F)c(Cl)c3)C3CC3)n(C)nc2c1=O` (single isomer, unassigned) [1-32], the figures for the pIC50 on P. vivax DHODH (setting [1]) and at Human DHODH were 8.10 and less than 4.00, respectively. The molecule further had a pEC50 in the assay with P. falciparum 3D7 (setting [2]) of 8.62.
For `CCn1ccc2c([C@](O)(c3ccc(C(F)(F)F)nc3)C3CC3)n(C)nc2c1=O` (single isomer, unassigned) [1-44], in that order: 7.54, less than 4.00 and 8.14.
For `Cn1nc2c(=O)n(C3CC3)ncc2c1[C@](O)(c1cnc(C(F)(F)F)c(Cl)c1)C1CC1` (single isomer, unassigned) [2-10] the same measures were 7.68, less than 4.52 and 7.82.
`CC[C@@](O)(c1cnc(C(F)(F)F)c(Cl)c1)c1c2cnn(C3CC3)c(=O)c2nn1C` (single isomer, unassigned) [2-14] had a negative-log EC50 (pEC50) in the assay on P. falciparum 3D7 (setting [2]) of 8.57. For the same molecule, on Human DHODH, the pIC50 was less than 4.52.
Regarding `CC[C@@](O)(c1cnc(C(F)(F)F)c(Cl)c1)c1c2ncn(C3CC3)c(=O)c2nn1C` (single isomer, unassigned) [3-5], the figures for the pIC50 on P. vivax DHODH (setting [1]) and on Human DHODH were 7.77 and 5.17, respectively. Besides, the pEC50 in the assay on P. falciparum 3D7 (setting [2]) is 9.03.
In the assay on P. falciparum 3D7 (setting [2]), `Cn1nc2c(=O)n(C3CC3)ccc2c1[C@](N)(c1cnc(C(F)(F)F)c(Cl)c1)C1CC1` (single isomer, unassigned) [4-9] had a pEC50 of 7.85. Also, the pIC50 is 7.36 at P. falciparum DHODH and 4.68 at Human DHODH.
As to `CC[C@@](N)(c1ccc(C(F)(F)F)c(Cl)c1)c1c2cnn(C3CC3)c(=O)c2nn1C` (single isomer, unassigned) [4-18], the pIC50 was 8.21 at P. vivax DHODH (setting [1]) and 5.33 on Human DHODH. For the same molecule, in the assay with P. falciparum 3D7 (setting [2]), the pEC50 was 8.47.
For `Cn1nc2c(=O)n(C3CC3)ncc2c1[C@](O)(c1cnc(C(F)(F)F)c(Cl)c1)C(F)(F)F` (single isomer, unassigned) [5-1], in that order: 7.70, less than 4.52 and 8.42.
Take `Cn1nc2c(=O)n(C3CC3)ccc2c1[C@](O)(c1cnc(C(F)(F)F)c(Cl)c1)C(F)(F)F` (single isomer, unassigned) [5-5]: the pEC50 with P. falciparum 3D7 (setting [2]) is 9.29. On Human DHODH, the pIC50 was less than 4.52.
Take `Cn1nc2c(=O)n(C3CC3)ccc2c1[C@](O)(c1ccc(C(F)(F)F)nc1)C(F)(F)F` (single isomer, unassigned) [5-11]: the pIC50 on P. vivax DHODH (setting [1]) was 7.60; on Human DHODH, less than 4.52. Moreover, in the assay with P. falciparum 3D7 (setting [2]), the pEC50 is 8.72.
For the molecule `Cn1nc2c(=O)n(C3CC3)cnc2c1[C@](O)(c1ccc(C(F)(F)F)c(C#N)c1)C(F)(F)F` (single isomer, unassigned) [5-56], in the assay with P. falciparum 3D7 (72 h), the pEC50 was 9.85. Besides, at P. falciparum DHODH, the pIC50 is 7.74.
For `Cn1nc2c(=O)n(C3CC3)ccc2c1[C@](O)(c1ccc(C(F)(F)F)c(Cl)c1)C(F)(F)F` (stereo in doubt) [5-7], the pIC50 on P. vivax DHODH (setting [3]) is 8.04; on Human DHODH, 5.33. Moreover, in the assay on P. falciparum 3D7 (setting [2]), the pEC50 is 9.77.
For `Cn1nc2c(=O)n(C3CC3)ccc2c1[C@](C)(O)c1cnc(C(F)(F)F)c(Cl)c1` [1-10], the pIC50 on P. vivax DHODH (setting [3]) was 8.01; at P. falciparum DHODH it was 7.60. The same molecule showed a pEC50 in the assay with P. falciparum 3D7 (setting [2]) of 8.85.

The record behind these values is patent EP4680608B1, “2,6-DIHYDRO-7H-PYRAZOLO[3,4-C]PYRIDIN-7-ONE DERIVATIVES AS ANTI-MALARIAL AGENTS” (MMV Medicines for Malaria Venture, priority 2024, dated 2025).
